# Source: patent publication US7731985B2, “4-aminopyrimidines and their use for the antimicrobial treatment of surfaces” (Ciba Specialty Chemicals Corporation, priority 2002, dated 2010)
# Marks after values point to notes of the source that are not given here.
# Experiments:
# Type in all cases: cell-based
# [1] = system: Staphylococcus aureus ATCC 9144; assay: Agar incorporation test CG128e (Example 11); settings: 24 hours at 37° C.
# Procedure: (§1) [table] 0.3 ml of each dilution step is mixed with 15 ml of nutrient medium while the latter is still liquid. After the nutrient medium has solidified, 10 μl of each of the following organism dilutions of the test strains in 0.85% NaCl solution are spotted onto the agar medium: [table] The plates are incubated at 37° C. for 24 hours (A. niger at 28° C. for 3 days) and then the highest dilution (lowest concentration) of the test substance at which growth is just no longer discernible (corresponds to the MIC) is determined.
# [2] = system: Pseudomonas aeruginosa ATCC 15442; assay: Agar incorporation test CG128e (Example 11); settings: 24 hours at 37° C.
# Procedure: as §1
# [3] = system: Escherichia coli ATCC 10536; assay: Agar incorporation test CG128e (Example 11); settings: 24 hours at 37° C.
# Procedure: as §1
# [4] = system: Propionibacterium acnes (*) ATCC 6919; assay: Agar incorporation test CG128e (Example 11); settings: 24 hours at 37° C.; organism marked *
# Procedure: as §1
# [5] = system: Klebsiella pneumoniae ATCC 4352; assay: Agar incorporation test CG128e (Example 11); settings: 24 hours at 37° C.
# Procedure: as §1
# [6] = system: Staphylococcus aureus ATCC 6538; assay: Agar incorporation test CG128e (Example 11); settings: 24 hours at 37° C.
# Procedure: as §1
# [7] = system: C. minutissimum ATCC 23348; assay: Agar incorporation test CG128e (Example 11); settings: 24 hours at 37° C.
# Procedure: as §1
# [8] = system: Staphylococcus epidermidis ATCC 12228; assay: Agar incorporation test CG128e (Example 11); settings: 24 hours at 37° C.
# Procedure: as §1
# [9] = system: Escherichia coli NCTC 8196; assay: Agar incorporation test CG128e (Example 11); settings: 24 hours at 37° C.
# Procedure: as §1
# [10] = system: Aspergillus niger ATCC 6275; assay: Agar incorporation test CG128e (Example 11); settings: 28° C. for 3 days
# Procedure: as §1
# [11] = system: Candida albicans ATCC 10231; assay: Agar incorporation test CG128e (Example 11); settings: 24 hours at 37° C.
# Procedure: as §1
# [12] = system: Corynebacterium xerosis* ATCC 373; assay: Agar incorporation test CG128e (Example 11); settings: 24 hours at 37° C.; organism marked *
# Procedure: as §1
# [13] = system: Salmonella choleraesuis ATCC 9184; assay: Agar incorporation test CG128e (Example 11); settings: 24 hours at 37° C.
# Procedure: as §1
# [14] = system: Proteus vulgaris ATCC 6896; assay: Agar incorporation test CG128e (Example 11); settings: 24 hours at 37° C.
# Procedure: as §1
# [15] = system: Escherichia coli ATCC 10536; assay: "Microbicidal Activity" suspension test CG 161/EN1040 (Example 12); settings: E. coli, test substance 120 ppm
# Procedure: (§2) Bacteria are incubated overnight in CASO broth and adjusted to an organism count of 1-5×10^5 CFU/ml using 0.85% sodium chloride solution. The test substances are pre-pipetted into microtitre plates in amounts of 8 μl per well. The adjusted test organism suspensions are added in amounts of 192 μl per well to the test substances and mixed. After defined contact times, the test batches are mixed, an aliquot is withdrawn and diluted in several steps in a dilution series of 1:10 in a suitable inactivation medium. The test plates are incubated for 24 hours at 37° C. After incubation, the growth is determined on the basis of the turbidity of the test batches (optical density) at 620 nm in a microplate reader. […] One microtitre plate is used for each test organism. All the substances are tested in duplicate.
# [16] = system: Staphylococcus aureus ATCC 6538; assay: as above; settings: S. aureus, test substance 120 ppm
# Procedure: as §2
# [17] = system: Actynomyces viscosus ATCC 43146; assay: as above; settings: A. viscosus
# Procedure: as §2
# [18] = system: Pseudomonas aeruginosa CIP A-22 (=PA); assay: MIC in microtitre plates (Example 10); design: unit not given here; settings: microtitre plate, 48 hours at 37° C., ≦20% growth
# Method in brief: (§3)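 DMSO-dissolved compounds tested in 1:2 serial dilution against overnight CASO broth cultures, inoculum adjusted to 1-5×10^6 CFU/ml then diluted 1:100 in CASO. Incubated 48 hours at 37° C; turbidity read at 620 nm. MIC = lowest concentration giving ≦20% growth versus control; duplicates.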
# [19] = system: Escherichia coli NCTC 8196 (=EC); assay: MIC in microtitre plates (Example 10); design: unit not given here; settings: microtitre plate, 48 hours at 37° C., ≦20% growth
# Method in brief: as §3
# [20] = system: Candida albicans ATCC 10231 (=CA); assay: MIC in microtitre plates (Example 10); design: unit not given here; settings: microtitre plate, 48 hours at 37° C., ≦20% growth
# Method in brief: as §3
# [21] = system: Staphylococcus aureus ATCC 9144 (=SA); assay: MIC in microtitre plates (Example 10); design: unit not given here; settings: microtitre plate, 48 hours at 37° C., ≦20% growth
# Method in brief: as §3
smiles,measurement,setting,value
CCCCCCCCCCCCNc1cc(C)nc(C)n1 [Compound of formula 89],MIC (agar incorporation) Staphylococcus aureus ATCC 9144,[1],7.5
same,MIC (agar incorporation) Pseudomonas aeruginosa ATCC 15442,[2],>120
same,MIC (agar incorporation) Escherichia coli ATCC 10536,[3],>120
same,MIC (agar incorporation) Propionibacterium acnes (*) ATCC 6919,[4],3.75
same,MIC (agar incorporation) Klebsiella pneumoniae ATCC 4352,[5],>120
same,MIC (agar incorporation) Staphylococcus aureus ATCC 6538,[6],7.5
same,MIC (agar incorporation) C. minutissimum ATCC 23348,[7],3.75
same,MIC (agar incorporation) Staphylococcus epidermidis ATCC 12228,[8],120
same,MIC (agar incorporation) Escherichia coli NCTC 8196,[9],120
same,MIC (agar incorporation) Aspergillus niger ATCC 6275,[10],>120
same,MIC (agar incorporation) Candida albicans ATCC 10231,[11],>120
same,MIC (agar incorporation) Corynebacterium xerosis* ATCC 373,[12],3.75
same,MIC (agar incorporation) Salmonella choleraesuis ATCC 9184,[13],>120
same,MIC (agar incorporation) Proteus vulgaris ATCC 6896,[14],60
same,log reduction,[15]; contact time 5 min,4.6 log
same,log reduction,[15]; contact time 30 min,>5 log
same,log reduction,[16]; contact time 5 min,<1 log
same,log reduction,[16]; contact time 30 min,1.7 log
same,log reduction,"[17]; contact time 5 min, test substance 0.12%",4.9 log
same,log reduction,"[17]; contact time 5 min, test substance 120 ppm",3.9 log
same,log reduction,"[17]; contact time 30 min, test substance 0.12%",>5 log
same,log reduction,"[17]; contact time 30 min, test substance 120 ppm",4.3 log
CCCCN(C)c1cc(C)nc(-c2ccncc2)n1 [compound 125],MIC PA,[18],>120
same,MIC EC,[19],>120
same,MIC CA,[20],120
same,MIC SA,[21],120
CCCCCCCCCCCCCCNc1cc(C)nc(-c2cccs2)n1 [compound 73],MIC PA,[18],>120
same,MIC EC,[19],7.5
same,MIC CA,[20],<3.75
same,MIC SA,[21],<3.75
NCCCOCCCCOCCCNc1nc(-c2ccccc2)nc(-c2ccc(F)cc2)c1-c1ccccc1 [compound 9],MIC PA,[18],>120
same,MIC EC,[19],15
same,MIC CA,[20],30
same,MIC SA,[21],15
CCCCCCCCCCCCNc1cc(C)nc(-c2cccnc2)n1 [compound 36],MIC PA,[18],60
same,MIC EC,[19],15
same,MIC CA,[20],7.5
same,MIC SA,[21],7.5
CCCCCCCCNc1cc(C)nc(-c2ccc(C)cc2)n1 [compound 66],MIC PA,[18],>120
same,MIC EC,[19],30
same,MIC CA,[20],30
same,MIC SA,[21],<3.75
CCCCN(C)c1cc(C)nc(-c2cccnc2)n1 [compound 53],MIC PA,[18],>120
same,MIC EC,[19],>120
same,MIC CA,[20],120
same,MIC SA,[21],60
CCCCCCCCCCCCCCNc1cc(C)nc(-c2csc(C)n2)n1 [compound 82],MIC PA,[18],>120
same,MIC EC,[19],15
same,MIC CA,[20],7.5
same,MIC SA,[21],<3.75
CCCCCCCCNc1cc(C)nc(-c2ccc(C)c(F)c2)n1 [compound 70],MIC PA,[18],>120
same,MIC EC,[19],15
same,MIC CA,[20],7.5
same,MIC SA,[21],<3.75
CCCCCCNc1cc(C)nc(-c2ccc(C)cc2)n1 [compound 115],MIC PA,[18],>120
same,MIC EC,[19],>120
same,MIC CA,[20],120
same,MIC SA,[21],7.5
CCCCCCCCCCNc1cc(C)nc(-c2cccs2)n1 [compound 98],MIC PA,[18],>120
same,MIC EC,[19],15
same,MIC CA,[20],15
same,MIC SA,[21],15
CCCCCCNc1cc(C)nc(-c2cccnc2)n1 [compound 33],MIC PA,[18],>120
same,MIC EC,[19],>120
same,MIC CA,[20],60
same,MIC SA,[21],30
CCCCN(C)c1cc(C)nc(-c2csc(C)n2)n1 [compound 129],MIC PA,[18],>120
same,MIC EC,[19],>120
same,MIC CA,[20],120
same,MIC SA,[21],120
CCCCCCCCNc1cc(C)nc(-c2ccccc2)n1 [compound 64],MIC PA,[18],>120
same,MIC EC,[19],30
same,MIC CA,[20],15
same,MIC SA,[21],7.5
NCCCCCCCCCCCCNc1cc(-c2cccc3ccccc23)ncn1 [compound 29],MIC PA,[18],>120
same,MIC EC,[19],30
same,MIC CA,[20],30
same,MIC SA,[21],15
CCCCCCCCCCCNc1cc(C)nc(-c2cccnc2)n1 [compound 35],MIC PA,[18],120
same,MIC EC,[19],30
same,MIC CA,[20],30
same,MIC SA,[21],15
CCCCCCNc1cc(C)nc(-c2cccc(N)c2)n1 [compound 114],MIC PA,[18],>120
same,MIC EC,[19],>120
same,MIC CA,[20],30
same,MIC SA,[21],15
CCCCCCCCNc1cc(C)nc(C)n1 [compound 65],MIC PA,[18],>120
same,MIC EC,[19],60
same,MIC CA,[20],15
same,MIC SA,[21],30
CCCCCCCCCCCCCCNc1cc(C)nc(C)n1 [compound 78],MIC PA,[18],>120
same,MIC EC,[19],7.5
same,MIC CA,[20],<3.75
same,MIC SA,[21],<3.75
CCCCCCCCCCNc1cc(C)nc(C)n1 [compound 101],MIC PA,[18],>120
same,MIC EC,[19],7.5
same,MIC CA,[20],7.5
same,MIC SA,[21],7.5
CCCCC(CC)CNc1cc(C)nc(-c2cccnc2)n1 (centres unmarked) [compound 42],MIC PA,[18],>120
same,MIC EC,[19],120
same,MIC CA,[20],30
same,MIC SA,[21],<3.75
CCCCCCCCCCCCCCNc1cc(C)nc(-c2ccncc2)n1 [compound 77],MIC PA,[18],>120
same,MIC EC,[19],60
same,MIC CA,[20],15
same,MIC SA,[21],7.5
CCCCCCCCCCCCNc1cc(C)nc(-c2cccnc2)n1 [Compound of formula 36],MIC (agar incorporation) Staphylococcus aureus ATCC 9144,[1],120
same,MIC (agar incorporation) Pseudomonas aeruginosa ATCC 15442,[2],>120
same,MIC (agar incorporation) Escherichia coli ATCC 10536,[3],>120
same,MIC (agar incorporation) Propionibacterium acnes (*) ATCC 6919,[4],60
same,MIC (agar incorporation) Klebsiella pneumoniae ATCC 4352,[5],60**
same,MIC (agar incorporation) Staphylococcus aureus ATCC 6538,[6],120
same,MIC (agar incorporation) C. minutissimum ATCC 23348,[7],30
same,MIC (agar incorporation) Staphylococcus epidermidis ATCC 12228,[8],>120
same,MIC (agar incorporation) Escherichia coli NCTC 8196,[9],120
same,MIC (agar incorporation) Aspergillus niger ATCC 6275,[10],>120
same,MIC (agar incorporation) Candida albicans ATCC 10231,[11],>120
same,MIC (agar incorporation) Corynebacterium xerosis* ATCC 373,[12],60
same,MIC (agar incorporation) Salmonella choleraesuis ATCC 9184,[13],>120
same,MIC (agar incorporation) Proteus vulgaris ATCC 6896,[14],>120
CCCCCCCCNc1cc(C)nc(-c2cccnc2)n1 [compound 34],MIC PA,[18],>120
same,MIC EC,[19],120
same,MIC CA,[20],30
same,MIC SA,[21],7.5
CCCCCCCCNc1cc(C)nc(C(C)C)n1 [compound 68],MIC PA,[18],>120
same,MIC EC,[19],30
same,MIC CA,[20],15
same,MIC SA,[21],15
